Laboratory results reported in PubChem BioAssay (NCI).
“And” between values parts separate entries of the source, which are not always exact repeats. Equal entries are not always repeated.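 48-hour exposure; five concentrations; linearly interpolated endpoints. GI50 is the concentration that inhibits growth by half. TGI: concentration producing complete growth inhibition.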

Experiments:
Test in all cases: NCI tumour cell line growth inhibition, 48 h
786-0 renal = test system: 786-0 renal
A498 renal = test system: A498 renal
A549 NSCLC = test system: A549 NSCLC
ACHN renal = test system: ACHN renal
CAKI-1 renal = test system: CAKI-1 renal
CCRF-CEM leukemia = test system: CCRF-CEM leukemia
COLO 205 colon = test system: COLO 205 colon
DLD-1 colon = test system: DLD-1 colon
DMS 114 small cell lung = test system: DMS 114 small cell lung
DMS 273 small cell lung = test system: DMS 273 small cell lung
EKVX NSCLC = test system: EKVX NSCLC
HCC-2998 colon = test system: HCC-2998 colon
HCT-116 colon = test system: HCT-116 colon
HCT-15 colon = test system: HCT-15 colon
HL-60(TB) leukemia = test system: HL-60(TB) leukemia
HOP-18 NSCLC = test system: HOP-18 NSCLC
HOP-62 NSCLC = test system: HOP-62 NSCLC
HOP-92 NSCLC = test system: HOP-92 NSCLC
HT29 colon = test system: HT29 colon
IGROV1 ovarian = test system: IGROV1 ovarian
K-562 leukemia = test system: K-562 leukemia
KM12 colon = test system: KM12 colon
KM20L2 colon = test system: KM20L2 colon
LOX IMVI melanoma = test system: LOX IMVI melanoma
LXFL 529 NSCLC = test system: LXFL 529 NSCLC
M14 melanoma = test system: M14 melanoma
M19-MEL melanoma = test system: M19-MEL melanoma
MALME-3M melanoma = test system: MALME-3M melanoma
MOLT-4 leukemia = test system: MOLT-4 leukemia
NCI-H226 lung = test system: NCI-H226 lung
NCI-H23 lung = test system: NCI-H23 lung
NCI-H460 lung = test system: NCI-H460 lung
NCI-H522 lung = test system: NCI-H522 lung
OVCAR-3 ovarian = test system: OVCAR-3 ovarian
OVCAR-4 ovarian = test system: OVCAR-4 ovarian
OVCAR-5 ovarian = test system: OVCAR-5 ovarian
OVCAR-8 ovarian = test system: OVCAR-8 ovarian
RPMI-8226 leukemia = test system: RPMI-8226 leukemia
RXF-631 renal = test system: RXF-631 renal
SF-268 CNS = test system: SF-268 CNS
SF-295 CNS = test system: SF-295 CNS
SF-539 CNS = test system: SF-539 CNS
SK-MEL-2 melanoma = test system: SK-MEL-2 melanoma
SK-MEL-28 melanoma = test system: SK-MEL-28 melanoma
SK-MEL-5 melanoma = test system: SK-MEL-5 melanoma
SK-OV-3 ovarian = test system: SK-OV-3 ovarian
SN12C renal = test system: SN12C renal
SNB-19 CNS = test system: SNB-19 CNS
SNB-75 CNS = test system: SNB-75 CNS
SNB-78 CNS = test system: SNB-78 CNS
SW-620 colon = test system: SW-620 colon
TK-10 renal = test system: TK-10 renal
U251 CNS = test system: U251 CNS
UACC-257 melanoma = test system: UACC-257 melanoma
UACC-62 melanoma = test system: UACC-62 melanoma
UO-31 renal = test system: UO-31 renal
BT-549 breast = test system: BT-549 breast
P388 leukemia = test system: P388 leukemia
P388/ADR leukemia = test system: P388/ADR leukemia
SN12K1 renal = test system: SN12K1 renal
XF 498 CNS = test system: XF 498 CNS
RXF 393 renal = test system: RXF 393 renal
SR leukemia = test system: SR leukemia

## O=C(Cc1nc2ccccc2o1)C(=O)Nc1cccc(C(F)(F)F)c1
786-0 renal
  TGI: > 100 µM
A498 renal
  TGI: > 100 µM
A549 NSCLC
  TGI: > 100 µM
ACHN renal
  TGI: > 100 µM
CAKI-1 renal
  TGI: > 100 µM
CCRF-CEM leukemia
  TGI: > 100 µM
COLO 205 colon
  TGI: > 100 µM
DLD-1 colon
  TGI: > 100 µM
DMS 114 small cell lung
  TGI: > 100 µM
DMS 273 small cell lung
  TGI: > 100 µM
EKVX NSCLC
  TGI: > 100 µM
HCC-2998 colon
  TGI: > 100 µM
HCT-116 colon
  TGI: > 100 µM
HCT-15 colon
  TGI: > 100 µM
HL-60(TB) leukemia
  TGI: > 100 µM
HOP-18 NSCLC
  TGI: > 100 µM
HOP-62 NSCLC
  TGI: > 100 µM
HOP-92 NSCLC
  TGI: > 100 µM
HT29 colon
  TGI: > 100 µM
IGROV1 ovarian
  TGI: > 100 µM
K-562 leukemia
  TGI: > 100 µM
KM12 colon
  TGI: > 100 µM
KM20L2 colon
  TGI: > 100 µM
LOX IMVI melanoma
  TGI: > 100 µM
LXFL 529 NSCLC
  TGI: > 100 µM
M14 melanoma
  TGI: > 100 µM
M19-MEL melanoma
  TGI: > 100 µM
MALME-3M melanoma
  TGI: > 100 µM
MOLT-4 leukemia
  TGI: > 100 µM
NCI-H226 lung
  TGI: > 100 µM
NCI-H23 lung
  TGI: > 100 µM
NCI-H460 lung
  TGI: > 100 µM
NCI-H522 lung
  TGI: > 100 µM
OVCAR-3 ovarian
  TGI: > 100 µM
OVCAR-4 ovarian
  TGI: > 100 µM
OVCAR-5 ovarian
  TGI: > 100 µM
OVCAR-8 ovarian
  TGI: > 100 µM
RPMI-8226 leukemia
  TGI: > 100 µM
RXF-631 renal
  TGI: > 100 µM
SF-268 CNS
  TGI: > 100 µM
SF-295 CNS
  TGI: > 100 µM
SF-539 CNS
  TGI: > 100 µM
SK-MEL-2 melanoma
  TGI: > 100 µM
SK-MEL-28 melanoma
  TGI: > 100 µM
SK-MEL-5 melanoma
  TGI: > 100 µM
SK-OV-3 ovarian
  TGI: > 100 µM
SN12C renal
  TGI: > 100 µM
SNB-19 CNS
  TGI: > 100 µM
SNB-75 CNS
  TGI: > 100 µM
SNB-78 CNS
  TGI: > 100 µM
SW-620 colon
  TGI: > 100 µM
TK-10 renal
  TGI: > 100 µM
U251 CNS
  TGI: > 100 µM
UACC-257 melanoma
  TGI: > 100 µM
UACC-62 melanoma
  TGI: > 100 µM
UO-31 renal
  TGI: > 100 µM

## COc1ccc(CC2C(=O)NC(C)C(=O)N(C)C3C(=O)N(C)C(Cc4ccc(O)c(c4)Oc4ccc(cc4)C3O)C(=O)NC(C)C(=O)NC(C)C(=O)N2C)cc1 (stereo not drawn)
BT-549 breast
  TGI: 0.01 µM
DLD-1 colon
  GI50: 0.0409 µM
  TGI: 3.45 µM and 0.581 µM
DMS 114 small cell lung
  GI50: 0.0128 µM
  TGI: 0.0206 µM and 0.0428 µM
DMS 273 small cell lung
  GI50: 0.0215 µM
  TGI: 0.117 µM and 0.0522 µM
HOP-18 NSCLC
  GI50: 0.0184 µM
  TGI: 0.0435 µM and 0.0401 µM
HOP-92 NSCLC
  GI50: 0.00303 µM
  TGI: 0.0283 µM and 0.0918 µM and 0.0269 µM
KM20L2 colon
  TGI: 0.35 µM and 0.471 µM
M19-MEL melanoma
  GI50: 0.00708 µM
  TGI: 0.13 µM and 0.0543 µM
NCI-H226 lung
  GI50: 0.0125 µM
  TGI: 0.0238 µM and 0.0257 µM
NCI-H23 lung
  GI50: 0.00711 µM
  TGI: 0.0557 µM and 0.0341 µM
P388 leukemia
  GI50: 0.0149 µM
  TGI: 0.0792 µM and 0.175 µM
P388/ADR leukemia
  TGI: 8.52 µM and 12.7 µM
SN12K1 renal
  GI50: 0.0135 µM
  TGI: 0.0321 µM and 0.0342 µM
SNB-78 CNS
  GI50: 0.0125 µM
  TGI: 0.0411 µM and 0.0264 µM
UACC-257 melanoma
  GI50: 0.016 µM
  TGI: 0.0663 µM and 0.032 µM
XF 498 CNS
  GI50: 0.00238 µM
  TGI: 0.0179 µM and 0.0313 µM

## COc1ccc(-c2cc(=O)c3c(O)cccc3o2)c(OC)c1OC
786-0 renal
  TGI: > 100 µM
A498 renal
  TGI: 82.9 µM
A549 NSCLC
  TGI: > 100 µM
ACHN renal
  TGI: > 100 µM
CAKI-1 renal
  TGI: > 100 µM
CCRF-CEM leukemia
  TGI: > 100 µM
COLO 205 colon
  TGI: > 100 µM
DLD-1 colon
  TGI: > 100 µM
DMS 114 small cell lung
  TGI: > 100 µM
DMS 273 small cell lung
  TGI: > 100 µM
HCC-2998 colon
  TGI: > 100 µM
HCT-116 colon
  TGI: > 100 µM
HCT-15 colon
  TGI: > 100 µM
HL-60(TB) leukemia
  TGI: > 100 µM
HOP-62 NSCLC
  TGI: > 100 µM
HOP-92 NSCLC
  TGI: > 100 µM
HT29 colon
  TGI: > 100 µM
IGROV1 ovarian
  TGI: > 100 µM
K-562 leukemia
  TGI: > 100 µM
KM12 colon
  TGI: > 100 µM
KM20L2 colon
  TGI: > 100 µM
LOX IMVI melanoma
  TGI: > 100 µM
LXFL 529 NSCLC
  TGI: > 100 µM
M14 melanoma
  TGI: > 100 µM
M19-MEL melanoma
  TGI: > 100 µM
MALME-3M melanoma
  TGI: > 100 µM
MOLT-4 leukemia
  TGI: > 100 µM
NCI-H226 lung
  TGI: > 100 µM
NCI-H23 lung
  TGI: > 100 µM
NCI-H460 lung
  TGI: > 100 µM
NCI-H522 lung
  TGI: > 100 µM
OVCAR-3 ovarian
  TGI: > 100 µM
OVCAR-4 ovarian
  TGI: > 100 µM
OVCAR-5 ovarian
  TGI: > 100 µM
OVCAR-8 ovarian
  TGI: > 100 µM
RPMI-8226 leukemia
  TGI: > 100 µM
RXF 393 renal
  TGI: > 100 µM
RXF-631 renal
  TGI: > 100 µM
SF-268 CNS
  TGI: > 100 µM
SF-295 CNS
  TGI: > 100 µM
SF-539 CNS
  TGI: 86.9 µM
SK-MEL-2 melanoma
  TGI: > 100 µM
SK-MEL-28 melanoma
  TGI: > 100 µM
SK-MEL-5 melanoma
  TGI: > 100 µM
SK-OV-3 ovarian
  TGI: > 100 µM
SN12C renal
  TGI: > 100 µM
SNB-75 CNS
  TGI: 75.5 µM
SNB-78 CNS
  TGI: > 100 µM
SW-620 colon
  TGI: > 100 µM
TK-10 renal
  TGI: > 100 µM
U251 CNS
  TGI: > 100 µM
UACC-257 melanoma
  TGI: > 100 µM
UACC-62 melanoma
  TGI: > 100 µM
XF 498 CNS
  TGI: > 100 µM

## CCCCCCCCCCCC[N+](CCCCCCCCCCCC)=C1SCCS1
786-0 renal
  TGI: 11.8 µM
A498 renal
  TGI: 29.4 µM
A549 NSCLC
  TGI: 18 µM
ACHN renal
  TGI: 25.1 µM
CAKI-1 renal
  TGI: 26.1 µM
COLO 205 colon
  TGI: 20.4 µM
DLD-1 colon
  TGI: 21.2 µM
DMS 114 small cell lung
  TGI: 3.58 µM
DMS 273 small cell lung
  TGI: 11.4 µM
EKVX NSCLC
  TGI: 26 µM
HCC-2998 colon
  TGI: 22.4 µM
HCT-116 colon
  TGI: 10.9 µM
HCT-15 colon
  TGI: 22.9 µM
HL-60(TB) leukemia
  TGI: 12.1 µM
HOP-18 NSCLC
  TGI: 30 µM
HOP-62 NSCLC
  TGI: 30.5 µM
HOP-92 NSCLC
  TGI: 23.1 µM
HT29 colon
  TGI: 12.8 µM
IGROV1 ovarian
  TGI: 23.4 µM
KM20L2 colon
  TGI: 18.4 µM
LOX IMVI melanoma
  TGI: 4.52 µM
LXFL 529 NSCLC
  TGI: 14 µM
M14 melanoma
  TGI: 22.3 µM
M19-MEL melanoma
  TGI: 8.43 µM
MALME-3M melanoma
  TGI: 19.1 µM
MOLT-4 leukemia
  TGI: 16.6 µM
NCI-H226 lung
  TGI: 28.2 µM
NCI-H23 lung
  TGI: 9.05 µM
NCI-H460 lung
  TGI: 20.5 µM
NCI-H522 lung
  TGI: 19.5 µM
OVCAR-3 ovarian
  TGI: 19.8 µM
OVCAR-4 ovarian
  TGI: 11.3 µM
OVCAR-5 ovarian
  TGI: 25.1 µM
OVCAR-8 ovarian
  TGI: 8.33 µM
RPMI-8226 leukemia
  TGI: 4.4 µM
RXF 393 renal
  TGI: 14.8 µM
RXF-631 renal
  TGI: 52.2 µM
SF-268 CNS
  TGI: 21.5 µM
SF-295 CNS
  TGI: 11.6 µM
SF-539 CNS
  TGI: 25.5 µM
SK-MEL-2 melanoma
  TGI: 23.2 µM
SK-MEL-28 melanoma
  TGI: 22.9 µM
SK-MEL-5 melanoma
  TGI: 18.5 µM
SK-OV-3 ovarian
  TGI: 30.1 µM
SN12C renal
  TGI: 14.6 µM
SNB-75 CNS
  TGI: 30 µM
SNB-78 CNS
  TGI: 14.6 µM
SR leukemia
  TGI: 15.2 µM
SW-620 colon
  TGI: 10.1 µM
TK-10 renal
  TGI: 28.8 µM
U251 CNS
  TGI: 13.7 µM
UACC-257 melanoma
  TGI: 21.3 µM
UACC-62 melanoma
  TGI: 22.9 µM
UO-31 renal
  TGI: 26.2 µM
